{"source": "paper PMC10874388", "about": "“Cyclic peptides discriminate BCL-2 and its clinical mutants from BCL-XL by engaging a single-residue discrepancy” (Nature Communications, 2024)", "assay_type_in_all_cases": "cell-based", "key": {"[1]": {"tested_on": "RS4:11 cells", "assay": "Cell viability assay (CellTiter-Glo), RS4:11", "conditions": "RS4:11, single wells", "protocol": "(§1) The cell lines Jurkat (TIB-152), El4 (TIB-39), Daudi (ccl-213), RS4:11 (crl-1873), A549 (ccl-185), HepG2 (hb-8065) and PANC-1 (crl-1469) were purchased from ATCC (American Type Culture Collection), and MGC-803 (C6582) was purchased from Beyotime (https://www.beyotime.com/product/C6582.htm). […] Daudi and RS4:11 cells were cultured in RPMI-1640 medium (HyClone, SH30809.01) and 10% FBS (Gibco, 10099-141), whereas HepG2, MGC-803 and PANC-1 cells were cultured in MDEM (HyClone, SH30243.01). Cells were maintained at 37 °C under a humidified, 5% (v/v) CO2-containing atmosphere.\n(§2) Cell viability was measured using CellTiter-Glo® 2.0 Reagent (Promega, G9242). […] After different inhibitors were added into serum-free medium and cultured for 4 h (RS4:11 for 6 h), FBS were supplemented to 10% and then incubated totally for 24 h or 48 h. Finally, the IC50 values were calculated based on measurements using a microplate reader (Thermo, Varioskan LUX). Statistical analysis was performed using software GraphPad Prism 7.0."}, "[2]": {"tested_on": "Jurkat cells", "assay": "Apoptosis assay, Annexin V-FITC/PI staining and flow cytometry", "protocol": "Jurkat cells were seeded to 6-well plates at a density of 4 ×10^5 cells per well. Cells were incubated in the presence of DMSO, venetoclax at 2.5 μM, cp1-TAT at 30 μM, cp2-TAT at 30 μM, or cp3-TAT at 20 μM in serum-free RPMI medium for 4 h. After being incubated totally for 24 h, cells were washed once with PBS and stained with 100 μL binding buffer containing 5 μL Annexin V-FITC and 10 μL PI for 15 min, followed by addition of 400 μL binding buffer to detect cell apoptosis with FCM (BD FACSAria Fusion). Statistical analysis was performed using software FlowJo V10 and GraphPad Prism 7.0."}, "[3]": {"tested_on": "Jurkat cells", "assay": "Mitochondrial membrane potential (JC-1), flow cytometry and fluorescence microscopy", "conditions": "for Q1(%) / Q1(%)/Q3(%) / Q3(%): Figure 6d, 4h, replicate values; for ΔΨm (ratio of red over green fluorescence, Q1/Q3): 4 h treatment, JC-1, flow cytometry, n = 3", "protocol": "For the mitochondrial membrane potential (ΔΨm) analysis, the mitochondrial membrane potential assay kit with JC-1 dye (Beyotime, C2006) was used according to the manufacturer’s protocol. […] The value of ΔΨm was expressed as the ratio of red fluorescence intensity over green fluorescence intensity. After treated with JC-1, fluorescence intensity of Jurkat cells was tested by flow cytometry (BD FACSAria Fusion) and fluorescence microscopy (NIKON Ti-E), respectively. All experiments were performed in triplicate. Statistical analysis was performed using software GraphPad Prism 7.0."}, "[4]": {"tested_on": "A549 cells (control)", "assay": "Cell viability assay (CellTiter-Glo), normal A549 (control)", "conditions": "TAT control", "protocol": "as §1, §2"}, "[5]": {"tested_on": "A549 cells overexpressing BCL-2 WT", "assay": "Cell viability assay, A549 stably overexpressing BCL-2 WT", "conditions": "BCL2-WT A549, TAT control", "protocol": "as §2\n(§3) Lentivirus packaging vectors pMDLg/pRRE, pRSV-Rev, and pVSV-G were obtained from Prof. Han Jiahuai’s lab (Xiamen University). Lentiviruses were produced using 3rd-generation lentivirus packaging plasmids transiently transfected into HEK293T cells with the constructs of interest using 0.25 M CaCl2. Media was changed after 16 h, and supernatants containing infectious virus particles were harvested 24 h later. A second viral harvest was made following a further 24 h incubation with fresh media. Virus containing supernatant was filtered through a […], and stored at 4 °C or −80 °C until being used. Typically, A549 cells were seeded into 10 cm cell culture dishes at 4 ~ 8 × 10^5 cells/cm^2. An equivalent volume of virus containing culture medium was added along with polybrene (Sigma) to a final concentration of 10 µg/mL. Cells were incubated at 37 °C for 20 h, before they were washed and resuspended in fresh culture media. The expression level of BCL-2 was measured by qPCR and western blot methods."}, "[6]": {"tested_on": "A549 cells overexpressing BCL-2 G101V", "assay": "Cell viability assay, A549 stably overexpressing BCL-2 G101V", "conditions": "BCL2/G101V A549, TAT control", "protocol": "as §2, §3"}, "[7]": {"tested_on": "MGC-803 cells", "assay": "Cell viability assay (CellTiter-Glo), MGC-803", "conditions": "TAT control", "protocol": "as §1, §2\n(§4) Supplementary Figure 10 Functional mechanism of CPs. a. IC50 values of venetoclax against A549, MGC-803 and PANC-1 cells, measured after 48 h treatment by a CellTiter-Glo assay and calculated using Prism 7.0 by a nonlinear-fit method. Data are presented as mean ± s.d.; n= 6 biological replicates. b. […]\n(§5) Glo assay. Each data point represents the mean ± s.d. for 6 biological replicates.\n(§6) Supplementary Figure 11 IC50 values of different inhibitors against different cell lines. a-d. Viability of A549 (a), HepG2 (b), MGC-803 (c) and PANC-1 (d) cells treated with various concentrations of ABT-199 (venetoclax), and measured after 48 h by a CellTiter-Glo assay. e, f. Viability of Jurkat cells (e) and Daudi cells (f) treated with […]\n(§7) after 48 h by a CellTiter-Glo assay. Each data point represents the mean ± s.d. for 6 biological replicates.\n(§8) (1 picture or pasted object on this page, not shown here)"}, "[8]": {"tested_on": "PANC-1 cells", "assay": "Cell viability assay (CellTiter-Glo), PANC-1", "conditions": "PNAC-1, TAT control", "protocol": "as §1, §2, §4, §5, §6, §7, §8"}}, "note": "“And” between values parts separate entries of the source, which are not always exact repeats. Equal values may be shown once. Starred links: 1 amine or outer side, 2 acyl side, 3 side chain; linkers in the order of their positions; H or OH if unused. Positions of bridges follow the written chain, without caps; N, C: chain ends. Residues, ends and D or L forms follow the SMILES beside them. X1 = O=C(C[*:2])NCCNC(=O)c1ccc(C2=N[C@H](C(=O)[*:1])CS2)cc1", "data": [{"compound": "C[C@@H]1NC(=O)[C@@H]2CCCN2C(=O)[C@@H]2CSC(=N2)c2ccc(cc2)C(=O)NCCNC(=O)CSC[C@@H](C(=O)NCC(=O)N[C@@H](CO)C(=O)NCC(=O)N[C@@H](CO)C(=O)N[C@@H](CCCNC(=N)N)C(=O)N[C@@H](CCCCN)C(=O)N[C@@H](CCCCN)C(=O)N[C@@H](CCCNC(=N)N)C(=O)N[C@@H](CCCNC(=N)N)C(=O)N[C@@H](CCC(N)=O)C(=O)N[C@@H](CCCNC(=N)N)C(=O)N[C@@H](CCCNC(=N)N)C(=O)N[C@@H](CCCNC(=N)N)C(N)=O)NC(=O)[C@H](CCC(=O)O)NC(=O)[C@H](Cc2ccc(O)cc2)NC(=O)[C@H](CC(=O)O)NC(=O)[C@H](Cc2c[nH]c3ccccc23)NC(=O)CNC(=O)[C@H](Cc2ccc(O)cc2)NC(=O)[C@H](CCCNC(=N)N)NC1=O", "note": "[cp1-TAT] (PARYGWDYECGSGSRKKRRQRRR-NH2; linker N-10 via X1; C-terminus assumed)", "values": [{"measurement": "raw luminescence reading", "setting": "[1]; 0.0488281 uM", "result": "483100 and 539500 and 548500 and 508300 and 527200 and 488600"}, {"measurement": "raw luminescence reading", "setting": "[1]; 0.0976562 uM", "result": "528800 and 591800 and 582200 and 559700 and 554700 and 529500"}, {"measurement": "raw luminescence reading", "setting": "[1]; 0.195312 uM", "result": "524900 and 538800 and 551800 and 528900 and 518500 and 499500"}, {"measurement": "inhibition rate", "setting": "[1]; 0.195312 uM, 0.195312 µM", "result": "0.825% and -1.8% and -4.26% and 0.0693% and 2% and 5.62%"}, {"measurement": "raw luminescence reading", "setting": "[1]; 0.390625 uM", "result": "511700 and 533900 and 533200 and 520400 and 504300 and 479000"}, {"measurement": "raw luminescence reading", "setting": "[1]; 0.78125 uM", "result": "535400 and 544100 and 562800 and 550400 and 519400 and 494800"}, {"measurement": "raw luminescence reading", "setting": "[1]; 1.5625 uM", "result": "520400 and 578500 and 612400 and 550500 and 491200 and 506800"}, {"measurement": "raw luminescence reading", "setting": "[1]; 3.125 uM", "result": "414000 and 466800 and 497600 and 501300 and 428800 and 513500"}, {"measurement": "raw luminescence reading", "setting": "[1]; 6.25 uM", "result": "401900 and 468400 and 486300 and 500900 and 419400 and 497100"}, {"measurement": "raw luminescence reading", "setting": "[1]; 12.5 uM", "result": "380500 and 444100 and 470000 and 488300 and 390700 and 473300"}, {"measurement": "inhibition rate", "setting": "[1]; 12.5 uM, 12.5 µM", "result": 11, "unit": "%"}, {"measurement": "raw luminescence reading", "setting": "[1]; 25 uM", "result": "309300 and 375600 and 407800 and 416800 and 350200 and 401000"}, {"measurement": "inhibition rate", "setting": "[1]; 25 uM, 25 µM", "result": "42% and 29% and 23% and 21% and 34% and 24%"}, {"measurement": "raw luminescence reading", "setting": "[1]; 50 uM", "result": "222600 and 265500 and 282300 and 297300 and 246800 and 283000"}, {"measurement": "inhibition rate", "setting": "[1]; 50 uM, 50 µM", "result": "58% and 50% and 47% and 44% and 53%"}, {"measurement": "raw luminescence reading", "setting": "[1]; 100 uM", "result": "63070 and 74540 and 82840 and 89800 and 66010 and 86930"}, {"measurement": "inhibition rate", "setting": "[1]; 100 uM, 100 µM", "result": "88% and 86% and 84% and 83%"}, {"measurement": "cell apoptosis(%)", "setting": "[2]; Figure 6b, replicate values", "result": "66.77% and 60.2%"}, {"measurement": "Proportion of apoptotic cells", "setting": "[2]; Jurkat, 24 h, 30 μM", "result": 66.77, "unit": "%"}, {"measurement": "Q1(%)", "setting": "[3]", "result": "67.4% and 59.1% and 60.9%"}, {"measurement": "Q1(%)/Q3(%)", "setting": "[3]", "result": "5.861 and 3.177 and 3.421"}, {"measurement": "Q3(%)", "setting": "[3]", "result": "11.5% and 18.6% and 17.8%"}, {"measurement": "ΔΨm (ratio of red over green fluorescence, Q1/Q3)", "setting": "[3]; Jurkat", "result": 4.15}, {"measurement": "Relative ΔΨm by JC-1 fluorescence staining (microscopy)", "setting": "[3]; Jurkat, 24 h treatment (Supplementary Fig. 13)", "result": "slightly decreased"}]}, {"compound": "TAT (GSGSRKKRRQRRR)", "values": [{"measurement": "average (raw viability reading)", "setting": "[4]; A549", "result": 422183}, {"measurement": "inhibition rate", "setting": "[4]; A549, fraction, replicates", "result": "0.1678 and 0.2197 and 0.2282 and 0.2003 and 0.1961 and 0.2135"}, {"measurement": "raw viability reading", "setting": "[4]; A549, replicates", "result": "409500 and 424300 and 426500 and 417300 and 441500 and 414000"}, {"measurement": "luminescence reading (raw, replicate wells)", "setting": "[4]; control A549", "result": "640800 and 544000 and 632800 and 539700 and 559000 and 590400"}, {"measurement": "luminescence reading, everage", "setting": "[4]; control A549, mean of 6 wells", "result": 584450}, {"measurement": "luminescence reading (raw, replicate wells)", "setting": "[5]", "result": "525300 and 568300 and 525100 and 556600 and 515500 and 559500"}, {"measurement": "luminescence reading, everage", "setting": "[5]; mean of 6 wells", "result": 541717}, {"measurement": "luminescence reading (raw, replicate wells)", "setting": "[6]", "result": "540600 and 529300 and 534000 and 526600 and 523000 and 507100"}, {"measurement": "luminescence reading, everage", "setting": "[6]; mean of 6 wells", "result": 526767}, {"measurement": "Q1(%)", "setting": "[3]", "result": "92.3% and 93.6% and 94.9%"}, {"measurement": "Q1(%)/Q3(%)", "setting": "[3]", "result": "22.1343 and 27.3684 and 32.6117"}, {"measurement": "Q3(%)", "setting": "[3]", "result": "4.17% and 3.42% and 2.91%"}, {"measurement": "ΔΨm (ratio of red over green fluorescence, Q1/Q3)", "setting": "[3]; Jurkat", "result": 27.37}, {"measurement": "average (raw viability reading)", "setting": "[7]", "result": 627500}, {"measurement": "inhibition rate", "setting": "[7]; fraction, replicates", "result": "0.09219 and 0.04796 and 0.06436 and 0.05774 and 0.0275 and 0.04676"}, {"measurement": "raw viability reading", "setting": "[7]; replicates", "result": "622000 and 626400 and 646500 and 633700 and 603500 and 632900"}, {"measurement": "average (raw viability reading)", "setting": "[8]", "result": 639133}, {"measurement": "inhibition rate", "setting": "[8]; fraction, replicates", "result": "0.2393 and 0.182 and 0.1596 and 0.1507 and 0.1102 and 0.1321"}, {"measurement": "raw viability reading", "setting": "[8]; replicates", "result": "580400 and 624100 and 641200 and 648000 and 678900 and 662200"}]}]}
